# Test results published in patent US8889672B2, “Compounds, formulations, and methods of protein kinase C inhibition” (The Regents of The University of Michigan, priority 2011, dated 2014).
# Like-named read-outs stand apart in the source and are kept apart here.
# Key:
# BREC monolayer [1] = experiment: TNF/VEGF permeability assay; assay type: cell-based, bovine; conditions: 30 min pretreatment, TNFα 1 hour then VEGF 30 min; for EC50: read-out: EC50 for inhibition of TNF/VEGF-induced endothelial permeability
# Experimental: BREC were plated onto 0.4 μm Transwell filters (Corning Costar, Acton, Mass., USA) and grown to confluence. Following 30 minutes of pretreatment with candidate compound, cells were subjected to 5 ng/ml TNFα (R&D Systems, Minneapolis, Minn., USA) for one hour, then 50 ng/ml VEGF (R&D Systems) for 30 minutes. Following treatments, 70 kDa Rhodamine β isothiocyanate-dextran (RITC-Dextran) was added to the apical chamber, and samples were collected from the basolateral chamber at 30 minute intervals for four hours. The rate of flux of the substrate, Po, was calculated over the four-hour time course from the following formula: Po=[FL/delta(t))VA]/(FAA)
# where Po is in centimeters per second; FL is basolateral fluorescence; FA is apical fluorescence; delta(t) is change in time; A is the surface area of the filter (in square centimeters); and VA is the volume of the basolateral chamber (in cubic centimeters).
# HEK293pNF-kBluc cells = experiment: TNF-induced NF-kB activation assay (luciferase reporter); assay type: cell-based, human; conditions: 3 h pre-treatment, 5 ng/mL TNF for 5 h
# Experimental: HEK293pNF-kBluc cells (Panomics, Fremont, Calif., USA) were cultured according to the manufacturer's protocol. Cells were seeded onto 96-well plates in phenol red-free DMEM containing high glucose (Sigma) for 24 hours prior to assay. Cells were exposed to a candidate compound for three hours. Following treatment, cells were stimulated with 5 ng/ml TNF (R&D Systems) for five hours. Cells were then lysed with Bright-Glo™ luciferase reagent (Promega, Madison, Wis., USA) and luminescent values were obtained using a GloMax® instrument using standard protocol for Bright-Glo™ luciferase reagent. Values were background corrected and normalized to TNF treatment alone and represented as % NF-kB activity.
# Human embryonic kidney cells containing a luciferase reporter gene for NF-kB activation (HEK293pNF-kBluc) were treated with candidate compounds described herein for three hours. The cells were then stimulated with TNF for five hours and the inhibition of NF-kB was evaluated. After pre-treatment with 100 nM of aPKC inhibitor, NF-kB activity was reduced by as much as 80%. […] Other compounds tested inhibited TNF-induced NF-kB activity, but to a lesser degree.
# aPKCζ [2] = biological target: T1, aPKCζ (Homo sapiens (Human), UniProt Q05513); experiment: ADP Quest assay, IC50 against aPKCζ; conditions: 500 ng/ml aPKCζ, 10 μM CREBtide, 10 μM ATP
# T1 sequence (Q05513 whole entry): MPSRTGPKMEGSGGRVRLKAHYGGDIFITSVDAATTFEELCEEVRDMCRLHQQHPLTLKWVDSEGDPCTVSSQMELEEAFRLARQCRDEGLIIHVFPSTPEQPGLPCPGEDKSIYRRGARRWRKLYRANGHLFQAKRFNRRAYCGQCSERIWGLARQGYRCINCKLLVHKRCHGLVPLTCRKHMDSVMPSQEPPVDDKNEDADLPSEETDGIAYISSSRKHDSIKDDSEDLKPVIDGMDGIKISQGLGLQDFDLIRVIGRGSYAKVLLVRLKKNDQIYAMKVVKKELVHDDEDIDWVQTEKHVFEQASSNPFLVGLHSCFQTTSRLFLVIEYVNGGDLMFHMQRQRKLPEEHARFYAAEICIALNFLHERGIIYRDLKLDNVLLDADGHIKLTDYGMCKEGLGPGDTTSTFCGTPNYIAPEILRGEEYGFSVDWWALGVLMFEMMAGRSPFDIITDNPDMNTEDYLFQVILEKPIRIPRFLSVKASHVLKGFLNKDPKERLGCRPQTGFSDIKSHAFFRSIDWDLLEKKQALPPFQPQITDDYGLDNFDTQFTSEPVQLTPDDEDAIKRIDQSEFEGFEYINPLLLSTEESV
# PKCα = PKCα (Homo sapiens (Human), UniProt P17252); experiment: Radio-labeled kinase assay at the Kmapp for ATP; assay type: biochemical
# Source text: (§1) PKCldiMeO and PKCζl-diCl were screened against other PKC isoforms to determine class specificity using a radio-labeled kinase assay at the Kmapp for ATP. […] PKCζl-diCl was 5-10 fold more specific towards the atypical PKC isoforms compared to the classical PKCs (α, β) and over 10-20 fold more specific compared to the novel class (δ,ε).
# PKCβ = PKCβ (Homo sapiens (Human), UniProt P05771); experiment: Radio-labeled kinase assay at the Kmapp for ATP; assay type: biochemical
# Sequence of PKCβ (P05771 whole entry): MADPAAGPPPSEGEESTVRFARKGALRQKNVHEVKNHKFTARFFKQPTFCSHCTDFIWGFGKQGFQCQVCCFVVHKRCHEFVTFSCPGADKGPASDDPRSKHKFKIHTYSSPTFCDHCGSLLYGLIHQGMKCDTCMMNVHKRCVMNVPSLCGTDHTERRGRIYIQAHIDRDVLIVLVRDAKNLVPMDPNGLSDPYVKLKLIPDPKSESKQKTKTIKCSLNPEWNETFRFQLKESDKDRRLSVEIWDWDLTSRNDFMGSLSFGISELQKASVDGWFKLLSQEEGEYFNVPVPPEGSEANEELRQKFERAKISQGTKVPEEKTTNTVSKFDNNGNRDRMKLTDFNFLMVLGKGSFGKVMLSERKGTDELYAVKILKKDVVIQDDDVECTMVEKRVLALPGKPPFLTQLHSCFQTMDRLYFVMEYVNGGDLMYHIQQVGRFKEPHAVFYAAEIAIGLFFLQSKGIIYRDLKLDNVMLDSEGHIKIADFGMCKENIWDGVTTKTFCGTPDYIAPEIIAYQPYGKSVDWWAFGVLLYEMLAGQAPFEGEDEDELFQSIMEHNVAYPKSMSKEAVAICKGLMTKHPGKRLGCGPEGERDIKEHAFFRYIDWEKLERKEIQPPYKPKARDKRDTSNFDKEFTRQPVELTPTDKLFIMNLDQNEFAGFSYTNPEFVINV
# Source text: as §1
# PKCδ = PKCδ (Homo sapiens (Human), UniProt Q05655); experiment: Radio-labeled kinase assay at the Kmapp for ATP; assay type: biochemical
# Sequence of PKCδ (Q05655 whole entry): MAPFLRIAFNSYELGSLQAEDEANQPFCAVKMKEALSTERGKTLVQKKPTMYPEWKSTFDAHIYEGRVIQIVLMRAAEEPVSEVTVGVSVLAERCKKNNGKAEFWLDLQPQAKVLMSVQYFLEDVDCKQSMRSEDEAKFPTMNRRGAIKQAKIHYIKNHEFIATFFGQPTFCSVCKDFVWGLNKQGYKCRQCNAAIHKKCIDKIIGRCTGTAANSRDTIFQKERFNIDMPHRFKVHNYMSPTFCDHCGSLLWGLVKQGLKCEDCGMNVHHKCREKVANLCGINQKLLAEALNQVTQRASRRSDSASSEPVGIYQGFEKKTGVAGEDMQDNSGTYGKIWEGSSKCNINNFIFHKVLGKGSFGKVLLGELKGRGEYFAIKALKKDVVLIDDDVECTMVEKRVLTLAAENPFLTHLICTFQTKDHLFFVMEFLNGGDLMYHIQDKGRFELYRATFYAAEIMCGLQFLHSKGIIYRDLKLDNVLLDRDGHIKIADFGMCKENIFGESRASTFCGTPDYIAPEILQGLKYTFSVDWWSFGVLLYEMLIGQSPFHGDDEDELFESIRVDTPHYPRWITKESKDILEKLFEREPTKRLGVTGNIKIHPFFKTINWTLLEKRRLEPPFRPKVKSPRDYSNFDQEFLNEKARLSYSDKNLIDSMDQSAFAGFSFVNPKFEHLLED
# Source text: as §1
# PKCε = PKCε (Homo sapiens (Human), UniProt Q02156); experiment: Radio-labeled kinase assay at the Kmapp for ATP; assay type: biochemical
# Sequence of PKCε (Q02156 whole entry): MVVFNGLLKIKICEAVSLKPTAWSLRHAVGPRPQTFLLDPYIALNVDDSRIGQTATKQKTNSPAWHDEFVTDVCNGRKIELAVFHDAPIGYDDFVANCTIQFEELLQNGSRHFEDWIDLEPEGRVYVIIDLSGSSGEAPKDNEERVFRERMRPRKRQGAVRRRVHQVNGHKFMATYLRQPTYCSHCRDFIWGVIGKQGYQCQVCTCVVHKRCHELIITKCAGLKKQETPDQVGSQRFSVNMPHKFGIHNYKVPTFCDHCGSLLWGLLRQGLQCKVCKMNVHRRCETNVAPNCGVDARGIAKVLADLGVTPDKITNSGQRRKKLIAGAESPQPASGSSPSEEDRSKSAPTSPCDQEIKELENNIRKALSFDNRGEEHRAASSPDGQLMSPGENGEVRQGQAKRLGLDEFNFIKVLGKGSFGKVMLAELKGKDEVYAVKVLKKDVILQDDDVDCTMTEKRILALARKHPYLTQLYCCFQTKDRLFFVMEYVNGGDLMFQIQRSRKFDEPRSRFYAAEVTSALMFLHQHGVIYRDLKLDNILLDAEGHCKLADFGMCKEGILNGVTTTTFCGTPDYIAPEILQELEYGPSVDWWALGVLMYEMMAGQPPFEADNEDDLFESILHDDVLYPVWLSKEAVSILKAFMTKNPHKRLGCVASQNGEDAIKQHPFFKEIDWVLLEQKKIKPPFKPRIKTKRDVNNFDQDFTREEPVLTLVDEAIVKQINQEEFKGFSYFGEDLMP
# Source text: as §1
# PKC isoforms = experiment: PKC class specificity from radio-labeled kinase assay; assay type: biochemical, human
# Source text: as §1
# [3] = system: 20 AGC super-family kinases; experiment: Screen of 20 AGC super-family kinases at 100 μM; assay type: biochemical, human
# [4] = system: cPKC / Erk phosphorylation in endothelial cells; experiment: cPKC activity in cell culture (Erk phosphorylation, immunoblot); assay type: cell-based
# Experimental: Cells were harvested in extraction buffer containing 100 mM NaCl, 1% Triton X-100, 0.5% Sodium Deoxycholate, 0.2% SDS, 2 mM EDTA, 10 mM HEPES (pH 7.5), 1 mM sodium orthovanadate, 10 mM sodium fluoride, 10 mM sodium pyrophosphate, 1 mM benzamadine, 1 complete protease inhibitor tablet, 10 μM LR-microcystin. Following protein extraction, Western blot utilizing the NuPAGE system (Invitrogen, Carlsbad, Calif., USA) was performed. Protein content was determined using DC protein assay (BioRad, Hercules, Calif., USA) and equal amounts of protein were loaded in 4-12% Bis-Tris gradient gels. Following electrophoresis and transferring to nitrocellulose, membranes were blocked in milk with 5% Tris-buffered saline with 0.1% Tween 20. Membranes were immunoblotted using anti-Flag (Cell Signaling, Danvers, Mass., USA), anti-HA (Cell Signaling, Danvers, Mass., USA), anti-phospho ERK1/2 (Cell Signaling, Danvers, Mass., USA), anti-total ERK1/2 (Cell Signaling, Danvers, Mass., USA), anti-phospho aPKC (Cell Signaling, Danvers, Mass., USA), total PKCζ (Santa Cruz, Santa Cruz, Calif., USA), and anti-actin (Millipore, Billerica, Mass., USA) antibodies. Primary antibodies were detected by horseradish peroxidase-conjugated anti-rabbit and chemiluminescence with ECL Advance (GE Healthcare, Piscataway, N.J., USA) or anti-mouse IgG alkaline phosphatase with ECF (GE Healthcare, Piscataway, N.J., USA).
# AKT in endothelial cells = experiment: AKT, downstream mediator of PI3K signaling, in endothelial cells; assay type: cell-based
# BREC monolayer [5] = experiment: VEGF-induced retinal endothelial permeability assay (70 kDa RITC-Dextran); assay type: cell-based, bovine; conditions: pretreatment 30 min, 30 or 100 nM PKCζl-diCl, 30 or 300 nM PKCl-diMeO; 50 ng/ml VEGF
# Experimental: (§2) Primary bovine retinal endothelial cells (BREC) were isolated from fresh bovine eye tissue. Human retinal endothelial cells (HREC) were from Cell Systems (Krikland, Wash., USA). Cells were grown in MCDB-131 complete media (Sigma-Aldrich, Mo., USA) containing 10% fetal bovine serum, 10 ng/ml epidermal growth factor, 200 μg/ml Endogro (Vec Technologies, Rensselaer, N.Y., USA), 90 μg/ml heparin, antibiotics and antimycotics. For experimentation, cells were grown to confluence and serum starved for 24 hours with 100 nM hydrocortisone and treated with VEGF at 50 ng/ml where indicated. All experiments were performed with cells at passage 5-8.
# (§3) RECs were plated onto 0.4 μm Transwell filters (Corning Costar, Acton, Mass., USA) and grown to confluence. Following treatments, 70 kDa rhodamine β isothiocyanate-dextran (RITC-Dextran) was added to the apical chamber and samples were collected from the basolateral chamber at 30 minute intervals for 4 hours. The rate of flux of the substrate, Po, was calculated over the 4 hour time course from the following formula. Po=[FL/Δt)VA]/(FAA) where Po is in centimeters per second; FL is basolateral fluorescence; FA is apical fluorescence; Δt is change in time; A is the surface area of the filter (in square centimeters); and VA is the volume of the basolateral chamber (in cubic centimeters). […]
# [6] = Solubility in aqueous environments; assay type: physicochemical
# BREC = experiment: LIVE/Dead cell viability; conditions: 24 and 48 hours; up to 300 nM
# aPKCζ [7] = biological target: T1, aPKCζ; experiment: Kinase-Glo end-point assay, IC50 against aPKCζ; conditions: 125 ng/ml aPKCζ, 25 μM CREBtide, 0.1 μM ATP
# [8] = system: human retinal endothelial primary cells (HREC) monolayers; experiment: Basal permeability of HREC monolayers; assay type: cell-based
# Experimental: as §2, §3
# [9] = system: occludin and ZO-1 border staining in BREC; experiment: Tight junction protein localization after VEGF (immunocytochemistry, confocal); assay type: cell-based, bovine; conditions: 100 nM, 30 min before 50 ng/ml VEGF for 60 min
# Experimental: VEGF treatment of retinal endothelial cells and diabetes leads to a breakdown of the tight junction complex and internalization of tight junction proteins occludin and ZO-1. The ability of the phenyl-thiophene derivatives to prevent the VEGF-induced reduction in tight junction border staining was examined. BREC were grown to confluence on coverslips and pretreated with 100 nM PKCζ-diCl for 30 minutes prior to treatment with 50 ng/ml VEGF for 60 minutes. Cells were fixed and stained with antibodies for ZO-1 or occludin and were visualized by confocal microscopy. VEGF decreased the border staining and continuity of ZO-1 and occludin labeling at the cell border. […] This effect on the tight junction correlated with the observed attenuation of VEGF-induced permeability.
# [10] = system: retinal vasculature tight junction complex (occludin); experiment: Occludin immuno-labeling of retinal flat mounts after intra-vitreal VEGF; conditions: intra-vitreal co-injection with VEGF
compound,measurement,setting,value
CCOC(=O)c1c(-c2ccc3c(c2)OCO3)csc1N [Compound 268-020-002],TNF/VEGF-induction of BREC permeability,BREC monolayer [1],significantly reduce
same,EC50,BREC monolayer [1],0.02 µM
same,EC50,HEK293pNF-kBluc cells,0.003 µM
same,IC50,aPKCζ [2],2 µM
COc1cccc(COC(=O)c2c(-c3ccc(OC)c(OC)c3)csc2N)c1 [Compound 317-052-004],EC50,HEK293pNF-kBluc cells,0.002 µM
same,IC50,aPKCζ [2],5 µM
COc1ccc(-c2csc(N)c2C(=O)OC(C)C)cc1OC [PKCl-diMeO],IC50,PKCα,282 µM
same,IC50,PKCβ,124 µM
same,IC50,PKCδ,147 µM
same,IC50,PKCε,> 100 µM
same,"specificity towards atypical PKC isoforms compared to the classical PKCs (α, β)",PKC isoforms,25-50 fold
same,"specificity towards atypical PKC isoforms compared to the novel class (δ,ε)",PKC isoforms,25 fold
same,inhibitory activity towards other AGC kinases,[3],limited inhibitory activity
same,cPKC activity in cell culture,[4],did not inhibit cPKC activity
same,Erk phosphorylation,[4]; endothelial cells,unaffected
same,AKT signaling,AKT in endothelial cells,unaffected
same,VEGF-induced permeability,BREC monolayer [5],dose-dependently blocked
same,TNF/VEGF-induction of BREC permeability,BREC monolayer [1],significantly reduce
same,EC50,BREC monolayer [1]; Bos taurus,0.001 µM
same,EC50,HEK293pNF-kBluc cells; Homo sapiens,0.003 µM
same,solubility in aqueous environments,[6],improved solubility in aqueous environments
same,BREC viability,BREC,no evidence of cell death
Nc1scc(-c2ccc(Cl)c(Cl)c2)c1C(=O)N1CCOCC1 [Compound 194-094-003],IC50,aPKCζ [2],3 µM
CCNC(=O)c1c(-c2ccc(OC)c(OC)c2)csc1N [Compound 194-074-008],IC50,aPKCζ [2],4 µM
CCOC(=O)c1c(-c2ccc(NC(C)=O)cc2)csc1N [Compound 317-056-002],IC50,aPKCζ [2],6 µM
CCNC(=O)c1c(-c2ccc(Cl)c(Cl)c2)csc1N [Compound 194-094-009],IC50,aPKCζ [2],5 µM
CCOC(=O)c1c(-c2ccc(N(C)C)cc2)csc1N [Compound 317-080-001],EC50,HEK293pNF-kBluc cells,0.001 µM
CCOC(=O)c1c(NC(C)=O)sc(C(C)=O)c1-c1ccc(Cl)cc1 [APOGEE B],IC50,aPKCζ [7],71 µM
CC(C)NC(=O)c1c(-c2ccc(Cl)c(Cl)c2)csc1N [Compound 194-094-008],IC50,aPKCζ [2],5 µM
COc1cccc(COC(=O)c2c(-c3ccc(C(N)=O)cc3)csc2N)c1 [Compound 317-120-001],IC50,aPKCζ [2],6 µM
COc1ccc(-c2csc(N)c2C(=O)OCc2ccccc2)cc1OC [Compound 252-036-001],EC50,HEK293pNF-kBluc cells,0.001 µM
same,IC50,aPKCζ [2],6 µM
"CC(C)OC(=O)c1c(-c2ccc(Cl)c(Cl)c2)csc1N [PKCζl-diCl, isopropyl 2-amino-4-(3,4-dichlorophenyl)thiophene-3-carboxylate]","specificity towards atypical PKC isoforms compared to the classical PKCs (α, β)",PKC isoforms,5-10 fold
same,"specificity towards atypical PKC isoforms compared to the novel class (δ,ε)",PKC isoforms,10-20 fold
same,VEGF-induced permeability,BREC monolayer [5],dose-dependently blocked
same,basal permeability of HREC monolayers,[8],reducing permeability was also observed
same,VEGF-induced redistribution of occludin and ZO-1,[9],blocked the VEGF-induced redistribution of occludin and ZO-1 proteins
same,occludin border staining in retinal vessels,[10],occludin border staining was preserved
COc1ccc(-c2csc(N)c2C(=O)N2CCOCC2)cc1OC [Compound 194-074-005],IC50,aPKCζ [2],4 µM
COc1ccc(-c2csc(N)c2C(=O)OCc2ccccc2F)cc1OC [Compound 317-052-001],IC50,aPKCζ [2],7 µM
COc1ccc(-c2csc(N)c2C#N)cc1OC [Compound 227-076-001],IC50,aPKCζ [2],7 µM
CCOC(=O)c1c(-c2ccc(OC)cc2F)csc1N [Compound 317-054-001],EC50,HEK293pNF-kBluc cells,0.01 µM
same,IC50,aPKCζ [2],4 µM
CCOC(=O)c1c(-c2ccc(N)cc2)csc1N [Compound 317-094-001],EC50,HEK293pNF-kBluc cells,0.001 µM
same,IC50,aPKCζ [2],2 µM
